The record followed here is patent publication US7750017B2, “Heterocycles” (Bayer Schering Pharma Aktiengesellschaft, priority 2004, dated 2010).

What is called IC50 is the point on the concentration scale where inhibition reaches its midpoint.

Each structure is given as a SMILES string. Structures can show the parent of a compound that is named as a salt. Where only a bound is given, the exact number is not on record here.

Test [1] concerns A431 cells [human epidermoid carcinoma, overexpressing HER1 (EGFR, ErbB1)]. Briefly: In vitro tumor cell proliferation assay (Cell Titer-Glo luminescent cell viability), A431 cells. It is filed as cell-based. To be noted: A-431, 72 h, 72 hours of drug exposure, Cell Titer-Glo readout, read-out: IC50, anti-proliferative activity in A431 cells. The source says:
(§1) The utility of the compounds of the present invention can be illustrated, for example, by their activity in vitro in the in vitro tumor cell proliferation assay described below. The link between activity in tumor cell proliferation assays in vitro and anti-tumor activity in the clinical setting has been very well established in the art.
(§2) The following assay is one of the methods by which compound activity relating to treatment of the disorders identified herein can be determined.
(§3) The tumor cell proliferation assay used to test the compounds of the present invention involves a readout called Cell Titer-Glow® Luminescent Cell Viability Assay developed by Promega® (Cunningham, B A “A Growing Issue: Cell Proliferation Assays, Modern kits ease quantification of cell growth” The Scientist 2001, 15(13), 26, and Crouch, S P et al., “The use of ATP bioluminescence as a measure of cell proliferation and cytotoxicity” Journal of Immunological Methods 1993, 160, 81-88), that measures inhibition of cell proliferation. Generation of a luminescent signal corresponds to the amount of ATP present, which is directly proportional to the number of metabolically active (proliferating) cells.
(§4) A431 cells [human epidermoid carcinoma, ATCC # […], overexpressing HER1 (EGFR, ErbB1)] and BT474 [human breast carcinoma, ATCC # CRL-1555, overexpressing HER2 (ErbB2)] were plated at a density of 2.5×10^3 cells/well in 96 well black-clear bottom tissue culture plates in RPMI media with 10% Fetal Bovine Serum and incubated at 37° C. Twenty-four hours later, test compounds are added at a final concentration range from as high 100 μm to as low 64 pM depend on the activities of the tested compounds in serial dilutions at a final DMSO concentration of 0.1%. Cells were incubated for 72 hours at 37° C. in complete growth media after addition of the test compound. After 72 hours of drug exposure, the plates were equilibrated to room temperature for approximately 30 min. Then, using a Promega Cell Titer Glo Luminescent® assay kit, lysis buffer containing 100 microliters of the enzyme luciferase and its substrate, luciferin mixture, was added to each well. The plates were mixed for 2 min on orbital shaker to ensure cell lysis and incubated for 10 min at room temperature to stabilize luminescence signal. The samples were read on VICTOR 2 using Luminescence protocol, and analyzed with Analyze5 software to generate IC50 values.

Test [2] relates to BT474 [human breast carcinoma, overexpressing HER2 (ErbB2)]. Briefly: In vitro tumor cell proliferation assay (Cell Titer-Glo luminescent cell viability), BT474 cells. It is filed as cell-based. To be noted: BT-474, 72 h, 72 hours of drug exposure, Cell Titer-Glo readout, read-out: IC50, anti-proliferative activity in BT474 cells.
Text: as §1, §2, §3, §4
In general terms: Cellular ATP, detected with luciferase, serves as a proxy for viable cell number.

For the molecule `OCC(O)c1ccc2c(c1)sc1ncnc(Nc3ccc(OCc4cccc(F)c4)c(Cl)c3)c12` (racemic) [Example 25, 1-[4-({3-chloro-4-[(3-fluorobenzyl)oxy]phenyl}amino) [1]benzothieno[2,3-d]pyrimidin-7-yl]ethane-1,2-diol], the IC50 in test [1] is at most 5 µM; in test [2] it was at most 0.5 µM. The matching figures for `OCC(O)c1ccc2c(c1)sc1ncnc(Nc3ccc(OCc4ccccn4)c(Cl)c3)c12` (racemic) [Example 73, 1-(4-{[3-chloro-4-(pyridin-2-ylmethoxy)phenyl]amino}[1]benzothieno[2,3-d]pyrimidin-7-yl)ethane-1,2-diol]: at most 5 µM and at most 0.5 µM. Turning to `CCOC(=O)Cc1ccc2c(c1)sc1ncnc(Nc3ccc(OCc4cccc(F)c4)c(Cl)c3)c12` [Example 1, ethyl[4-({3-chloro-4-[(3-fluorobenzyl)oxy]phenyl}amino)[1]benzothieno[2,3-d]pyrimidin-7-yl]acetate], the concentration for half-maximal inhibition (IC50) in test [1] is at most 50 µM; in test [2], at most 5 µM. For `OCCc1ccc2c(c1)sc1ncnc(Nc3ccc(OCc4cccc(F)c4)c(Cl)c3)c12` [Example 2, 2-[4-({3-chloro-4-[(3-fluorobenzyl)oxy]phenyl}amino)[1]benzothieno[2,3-d]pyrimidin-7-yl]ethanol] the same measures were at most 5 µM and at most 5 µM. The matching figures for `Fc1cccc(COc2ccc(Nc3ncnc4sc5cc(CCBr)ccc5c34)cc2Cl)c1` [Example 3, 7-(2-bromoethyl)-N-{3-chloro-4-[(3-fluorobenzyl)oxy]phenyl}[1]benzothieno[2,3-d]pyrimidin-4-amine]: at most 5 µM and at most 0.5 µM.

With `CS(=O)(=O)CCNCCc1ccc2c(c1)sc1ncnc(Nc3ccc(OCc4cccc(F)c4)c(Cl)c3)c12` [Example 4, N-{3-chloro-4-[(3-fluorobenzyl)oxy]phenyl}-7-(2-{[2-(methylsulfonyl)ethyl]amino}ethyl)[1]benzothieno[2,3-d] pyrimidin-4-amine], the values for the IC50 in test [1] and in test [2] were at most 50 µM and at most 0.5 µM, respectively. The matching figures for `COC[C@H]1CCCN1CCc1ccc2c(c1)sc1ncnc(Nc3ccc(OCc4cccc(F)c4)c(Cl)c3)c12` [Example 5, N-{3-chloro-4-[(3-fluorobenzyl)oxy]phenyl}-7-{2-[2-(methoxymethyl)pyrrolidin-1-yl]ethyl}[1]benzothieno[2,3-d] pyrimidin-4-amine]: at most 5 µM and at most 0.5 µM. For `COCCN(CCOC)CCc1ccc2c(c1)sc1ncnc(Nc3ccc(OCc4cccc(F)c4)c(Cl)c3)c12` [Example 6, 7-{2-[bis(2-methoxyethyl)amino]ethyl}-N-{3-chloro-4-[(3-fluorobenzyl)oxy]phenyl}[1] benzothieno[2,3-d]pyrimidin-4-amine] the same measures were at most 5 µM and at most 0.5 µM. The matching figures for `Fc1cccc(COc2ccc(Nc3ncnc4sc5cc(CCn6ccnc6)ccc5c34)cc2Cl)c1` [Example 7, [3-chloro-4-(3-fluoro-benzyloxy)-phenyl]-[7-(2-imidazol-1-yl-ethyl)-benzo[4,5]thieno[2,3-d]pyrimidin-4-yl]-amine]: at most 50 µM and at most 5 µM.

`OCCN(CCO)CCc1ccc2c(c1)sc1ncnc(Nc3ccc(OCc4cccc(F)c4)c(Cl)c3)c12` [Example 8, 2,2'-({2-[4-({3-chloro-4-[(3-fluorobenzyl)oxy]phenyl}amino)[1]benzothieno[2,3-d]pyrimidin-7-yl]ethyl}imino)diethanol]: the IC50 in test [1] is at most 5 µM; in test [2], at most 0.5 µM.

`COCCNCCc1ccc2c(c1)sc1ncnc(Nc3ccc(OCc4cccc(F)c4)c(Cl)c3)c12` [Example 9, N-{3-chloro-4-[(3-fluorobenzyl)oxy]phenyl}-7-{2-[(2-methoxyethyl)amino]ethyl}[1] benzothieno[2,3-d]pyrimidin-4-amine]: the IC50 in test [1] was at most 5 µM; in test [2], at most 0.5 µM. The matching figures for `Fc1cccc(COc2ccc(Nc3ncnc4sc5cc(CCN6CCOCC6)ccc5c34)cc2Cl)c1` [Example 10, N-{3-chloro-4-[(3-fluorobenzyl)oxy]phenyl}-7-(2-morpholin-4-ylethyl)[1] benzothieno[2,3-d]pyrimidin-4-amine]: at most 50 µM and at most 0.5 µM.

With `Fc1cccc(COc2ccc(Nc3ncnc4sc5cc(CCN6CCCC6)ccc5c34)cc2Cl)c1` [Example 11, N-{3-chloro-4-[(3-fluorobenzyl)oxy]phenyl}-7-(2-pyrrolidin-1-ylethyl)[1] benzothieno[2,3-d]pyrimidin-4-amine], the IC50 is at most 5 µM in test [1] and at most 0.5 µM in test [2]. The matching figures for `COCCN1CCN(CCc2ccc3c(c2)sc2ncnc(Nc4ccc(OCc5cccc(F)c5)c(Cl)c4)c23)CC1` [Example 12, N-{3-chloro-4-[(3-fluorobenzyl)oxy]phenyl}-7-{2-[4-(2-methoxyethyl)piperazin-1-yl]ethyl}[1]benzothieno [2,3-d]pyrimidin-4-amine]: at most 5 µM and at most 0.5 µM. Regarding `Fc1cccc(COc2ccc(Nc3ncnc4sc5cc(Br)ccc5c34)cc2Cl)c1` [Example 13, 7-bromo-N-{3-chloro-4-[(3-fluorobenzyl)oxy]phenyl}[1]benzothieno[2,3-d]pyrimidin-4-amine], the IC50 is at most 50 µM in test [1] and at most 5 µM in test [2]. For `C=Cc1ccc2c(c1)sc1ncnc(Nc3ccc(OCc4cccc(F)c4)c(Cl)c3)c12` [Example 14, N-{3-chloro-4-[(3-fluorobenzyl)oxy]phenyl}-7-vinyl[1]benzothieno[2,3-d]pyrimidin-4-amine] the same measures were at most 50 µM and at most 0.5 µM. The matching figures for `Fc1cccc(COc2ccc(Nc3ncnc4sc5cc(CCN6CCSCC6)ccc5c34)cc2Cl)c1` [Example 15, N-{3-chloro-4-[(3-fluorobenzyl)oxy]phenyl}-7-(2-thiomorpholin-4-ylethyl)[1] benzothieno[2,3-d]pyrimidin-4-amine]: at most 5 µM and at most 0.5 µM.

Regarding `Fc1cccc(COc2ccc(Nc3ncnc4sc5cc(CCNCCN6CCOCC6)ccc5c34)cc2Cl)c1` [Example 16, N-{3-chloro-4-[(3-fluorobenzyl)oxy]phenyl}-7-{2-[(2-morpholin-4-ylethyl)amino]ethyl}[1] benzothieno[2,3-d]pyrimidin-4-amine], the IC50 in test [1] is at most 50 µM; in test [2], at most 0.5 µM. The matching figures for `Fc1cccc(COc2ccc(Nc3ncnc4sc5cc(CCN6CCCCC6)ccc5c34)cc2Cl)c1` [Example 17, N-{3-chloro-4-[(3-fluorobenzyl)oxy]phenyl}-7-(2-piperidin-1-ylethyl)[1] benzothieno[2,3-d]pyrimidin-4-amine]: at most 5 µM and at most 0.5 µM. Turning to `OC[C@@H](O)COc1ccc2c(c1)sc1ncnc(Nc3ccc(OCc4cccc(F)c4)c(Cl)c3)c12` [Example 35, (2R)-3-{[4-({3-chloro-4-[(3-fluorobenzyl)oxy]phenyl}amino)[1]benzothieno[2,3-d]pyrimidin-7-yl]oxy}propane-1,2-diol], the IC50 in test [1] is at most 5 µM.

Consider `CS(=O)(=O)CCNC(=O)/C=C/c1ccc2c(c1)sc1ncnc(Nc3ccc(OCc4cccc(F)c4)c(Cl)c3)c12` [Example 53, (2E)-3-[4-({3-chloro-4-[(3-fluorobenzyl)oxy]phenyl}amino) [1]benzothieno[2,3-d]pyrimidin-7-yl]-N-[2-(methylsulfonyl)ethyl]acrylamide], for which, in test [1], the IC50 is at most 50 µM. In the case of `O=C(/C=C/c1ccc2c(c1)sc1ncnc(Nc3ccc(OCc4cccc(F)c4)c(Cl)c3)c12)N1CCOCC1` [Example 55, N-{3-chloro-4-[(3-fluorobenzyl)oxy]phenyl}-7-[(1E)-3-morpholin-4-yl-3-oxoprop-1-en-1-yl][1]benzothieno[2,3-d] pyrimidin-4-amine trifluoroacetate], the IC50 in test [1] is at most 5 µM.

Regarding `CN1CCN(CCc2ccc3c(c2)sc2ncnc(Nc4ccc(OCc5ccccn5)c(Cl)c4)c23)CC1` [Example 91], the IC50 in test [2] is at most 0.5 µM. Same read-out and setting: for `OC[C@@H](O)COc1ccc2c(c1)sc1ncnc(Nc3ccc(OCc4cccc(F)c4)c(Cl)c3)c12` [Example 147, ((2R)-3-{[4-({3-chloro-4-[(3-fluorobenzyl)oxy]phenyl}amino)[1]benzothieno[2,3-d]pyrimidin-7-yl]oxy}propane-1,2-diol hydrochloride] the value was at most 0.5 µM.
